Test results reported in PubChem BioAssay AID1845206 (Molecular Pharmacology Branch, DTP, NCI, 2023).
Calls of active or inactive are those of the source. The calls were made as follows: active = viability on the fitted dose curve at most 10% of control; inactive = the rest.

Test system: NCI-H1618 multicellular tumor spheroid viability
Assay: Anticancer human tumor NCI-H1618 cell line growth inhibition;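 also: spheroids exposed to agents for 7 days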
Settings: for IC50: curve of first compound; for viability, T/C: stronger effect = lower value
In short: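 Single agents and combinations were tested on spheroids built from tumor cells plus HUVEC and hMSC, at half-log dilutions starting at or near clinical Cmax, else 10 microM; final DMSO 0.25% (v/v).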

[1] = second compound 1 µM, first compound 0.0316 µM
[2] = second compound 1 µM, first compound 0.1 µM
[3] = second compound 1 µM, first compound 0.316 µM
[4] = second compound 1 µM, first compound 1 µM
[5] = second compound 1 µM, first compound 3.16 µM
[6] = second compound 1 µM, first compound 10 µM
[7] = second compound 3.16 µM, first compound 0.0316 µM
[8] = second compound 3.16 µM, first compound 0.1 µM
[9] = second compound 3.16 µM, first compound 0.316 µM
[10] = second compound 3.16 µM, first compound 1 µM
[11] = second compound 3.16 µM, first compound 3.16 µM
[12] = second compound 3.16 µM, first compound 10 µM
[13] = second compound 10 µM, first compound 0.0316 µM
[14] = second compound 10 µM, first compound 0.1 µM
[15] = second compound 10 µM, first compound 0.316 µM
[16] = second compound 10 µM, first compound 1 µM
[17] = second compound 10 µM, first compound 3.16 µM
[18] = second compound 10 µM, first compound 10 µM
[19] = second compound 31.6 µM, first compound 0.0316 µM
[20] = second compound 31.6 µM, first compound 0.1 µM
[21] = second compound 31.6 µM, first compound 0.316 µM
[22] = second compound 31.6 µM, first compound 1 µM
[23] = second compound 31.6 µM, first compound 3.16 µM
[24] = second compound 31.6 µM, first compound 10 µM
[25] = second compound 100 µM, first compound 0.0316 µM
[26] = second compound 100 µM, first compound 0.1 µM
[27] = second compound 100 µM, first compound 0.316 µM
[28] = second compound 100 µM, first compound 1 µM
[29] = second compound 100 µM, first compound 3.16 µM
[30] = second compound 100 µM, first compound 10 µM

Row | Compound | IC50 (second compound 1 µM) | IC50 (second compound 3.16 µM) | IC50 (second compound 10 µM) | IC50 (second compound 31.6 µM) | IC50 (second compound 100 µM) | viability, T/C [1] | viability, T/C [2] | viability, T/C [3] | viability, T/C [5] | viability, T/C [6] | viability, T/C [7] | viability, T/C [8] | viability, T/C [9] | viability, T/C [10] | viability, T/C [11] | viability, T/C [12] | viability, T/C [13] | viability, T/C [14] | viability, T/C [15] | viability, T/C [16] | also measured
1 | CC1COCCN1c1cc(-c2ccnn2C)c2ccnc(-c3ccn[nH]3)c2n1 (stereo not given) + Cn1nnc2c(C(N)=O)ncn2c1=O | < 31.6 nM | < 31.6 nM | < 31.6 nM | < 31.6 nM | < 31.6 nM | 3.35% | 3.94% | 1.49% | 1.02% | 3.48% | 10.3% | 1.64% | 1.41% | 1.67% | 1.26% | 2.12% | 1.82% | 13.4% | 1.48% | 1.19% | viability, T/C [4]: 2.09%; viability, T/C [17]: 1.65%; viability, T/C [18]: 2.14%; viability, T/C [19]: 1.23%; viability, T/C [20]: 1.26%; viability, T/C [21]: 1.34%; viability, T/C [22]: 1.03%; viability, T/C [23]: 1.36%; viability, T/C [24]: 1.55%; viability, T/C [25]: 1.42%; viability, T/C [26]: 1.23%; viability, T/C [27]: 1.48%; viability, T/C [28]: 1.42%; viability, T/C [29]: 13.7%; viability, T/C [30]: 1.05%
2 | COc1ccc([C@@H](O)c2cc(-c3ncnc4cc(N5CCOCC5)ccc34)c(F)cc2Cl)nn1 + Cn1nnc2c(C(N)=O)ncn2c1=O | 5420 nM | < 31.6 nM | < 31.6 nM | < 31.6 nM | < 31.6 nM | 86.8% | 92% | 95.2% | 72.6% | 24.2% | 26.6% | 27.2% | 17.2% | 22.2% | 5.58% | 6.14% | 3.36% | 5.1% | 5.03% | 5.47% | outcome [4]: inactive; viability, T/C [17]: 5.06%; viability, T/C [18]: 5.28%; viability, T/C [19]: 8.19%; viability, T/C [20]: 12.4%; viability, T/C [21]: 14.6%; viability, T/C [22]: 17.1%; viability, T/C [23]: 5.03%; viability, T/C [24]: 5.45%; viability, T/C [25]: 20.6%; viability, T/C [26]: 34.8%; viability, T/C [27]: 63.5%; viability, T/C [28]: 35.5%; viability, T/C [29]: 20.1%; viability, T/C [30]: 12.2%
